Columns and labels:
Experiment in all cases: relative viability (nuclei count vs DMSO), 5 days (fraction); higher = more cells survive
[1] = compound: C/C(=N\NC(=S)N1CCC1)/C2=CC=CC=N2 + CS(=O)(=O)N1CCN(Cc2cc3nc(-c4cccc5[nH]ncc45)nc(N4CCOCC4)c3s2)CC1 [Pictilisib] (partner 1 µM)
How it was run: (§1)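 Lung cancer cell lines in 1536-well plates got either a single drug or a fixed anchor-drug dose together with five library-drug doses (not always all listed) in √10 steps, by pin tool, on the day after seeding. Nuclei were counted after 5 days, and relative viability is the treated-to-vehicle ratio of nuclei counts. Values are medians of duplicate plates.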

[2] = compound: C/C(=N\NC(=S)N1CCC1)/C2=CC=CC=N2 + C[C@@H](Oc1cc(-c2cnn(C3CCNCC3)c2)cnc1N)c1c(Cl)ccc(F)c1Cl [Crizotinib] (partner 1 µM)
How it was run: as §1

[3] = compound: C/C(=N\NC(=S)N1CCC1)/C2=CC=CC=N2 + Cc1nc(NC(=O)N2CCC[C@H]2C(N)=O)sc1-c1ccnc(C(C)(C)C(F)(F)F)c1 [Alpelisib] (partner 2 µM)
How it was run: as §1

[4] = compound: C/C(=N\NC(=S)N1CCC1)/C2=CC=CC=N2 + CS(=O)(=O)CCNCc1ccc(-c2ccc3ncnc(Nc4ccc(OCc5cccc(F)c5)c(Cl)c4)c3c2)o1 [Lapatinib] (partner 2 µM)
How it was run: as §1

[5] = compound: C/C(=N\NC(=S)N1CCC1)/C2=CC=CC=N2 + CC(C)C[C@H](NC(=O)[C@H](Cc1ccccc1)NC(=O)c1cnccn1)B(O)O [Bortezomib] (partner 0.002 µM)
How it was run: as §1

[6] = compound: C/C(=N\NC(=S)N1CCC1)/C2=CC=CC=N2 + O=C(c1cc(Cc2n[nH]c(=O)c3ccccc23)ccc1F)N1CCN(C(=O)C2CC2)CC1 [Olaparib] (partner 8 µM)
How it was run: as §1

[7] = compound: C/C(=N\NC(=S)N1CCC1)/C2=CC=CC=N2 + CC1(C)CCC(c2ccc(Cl)cc2)=C(CN2CCN(c3ccc(C(=O)NS(=O)(=O)c4ccc(N[C@H](CCN5CCOCC5)CSc5ccccc5)c(S(=O)(=O)C(F)(F)F)c4)cc3)CC2)C1 [Navitoclax] (partner 0.5 µM)
How it was run: as §1

[8] = compound: C/C(=N\NC(=S)N1CCC1)/C2=CC=CC=N2 + COc1cc2c(Oc3ccc(NC(=O)C4(C(=O)Nc5ccc(F)cc5)CC4)cc3F)ccnc2cc1OCCCN1CCOCC1 [Foretinib] (partner 0.25 µM)
How it was run: as §1

[9] = compound: C/C(=N\NC(=S)N1CCC1)/C2=CC=CC=N2 + C[C@]1(O)C[C@@H](c2nc(-c3ccc4ccc(-c5ccccc5)nc4c3)c3c(N)nccn32)C1 [Linsitinib] (partner 1 µM)
How it was run: as §1

[10] = compound: C/C(=N\NC(=S)N1CCC1)/C2=CC=CC=N2
How it was run: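 Lung cancer cell lines in 1536-well plates were kept overnight at 37 °C, then pinned with five library-drug doses (not always all listed) spaced by √10 on vehicle-anchored plates. After 5 days without medium change, cells were fixed, permeabilised and Hoechst-stained in one step, imaged at 4×, and nuclei were counted with MetaXpress. Viability is treated-well nuclei divided by vehicle-well nuclei, taken as the median over plates. Plates passed only with control CV below 25% and at least one doubling.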

[11] = compound: C/C(=N\NC(=S)N1CCC1)/C2=CC=CC=N2 + CCNC(=O)c1noc(-c2cc(C(C)C)c(O)cc2O)c1-c1ccc(CN2CCOCC2)cc1 [Luminespib] (partner 0.01 µM)
How it was run: as §1

[12] = compound: C/C(=N\NC(=S)N1CCC1)/C2=CC=CC=N2 + Cc1nc(Nc2ncc(C(=O)Nc3c(C)cccc3Cl)s2)cc(N2CCN(CCO)CC2)n1 [Dasatinib] (partner 0.075 µM)
How it was run: as §1

[13] = compound: C/C(=N\NC(=S)N1CCC1)/C2=CC=CC=N2 + N=C(N)NC(=N)NCCc1ccccc1 [Phenformin] (partner 250 µM)
How it was run: as §1

[14] = compound: C/C(=N\NC(=S)N1CCC1)/C2=CC=CC=N2 + COc1cccc2cc(-c3nc([C@H]4CC[C@H](C(=O)O)CC4)n4ncnc(N)c34)[nH]c12 [OSI-027] (partner 0.5 µM)
How it was run: as §1

[15] = compound: C/C(=N\NC(=S)N1CCC1)/C2=CC=CC=N2 + Cc1cc(Nc2cc(N3CCN(C)CC3)nc(Sc3ccc(NC(=O)C4CC4)cc3)n2)n[nH]1 [Tozasertib] (partner 0.1 µM)
How it was run: as §1

NCI-H1299 gave a relative viability ([1]; first compound 0.05 µM) of 0.0583, a relative viability ([1]; first compound 0.1581 µM) of 0.0875 and a relative viability ([1]; first compound 0.5 µM) of 0.103. The relative viability ([1]; first compound 1.581 µM) was 0.0673, the relative viability ([1]; first compound 5 µM) was 0.0511 and the relative viability ([2]; first compound 0.05 µM) was 0.16. It also gave a relative viability ([2]; first compound 0.1581 µM) of 0.16, a relative viability ([2]; first compound 0.5 µM) of 0.191 and a relative viability ([2]; first compound 1.581 µM) of 0.19. The relative viability ([2]; first compound 5 µM) was 0.102, the relative viability ([3]; first compound 0.05 µM) was 0.094 and the relative viability ([3]; first compound 0.1581 µM) was 0.195. The relative viability ([3]; first compound 0.5 µM) was 0.213, the relative viability ([3]; first compound 1.581 µM) was 0.213 and the relative viability ([3]; first compound 5 µM) was 0.15. It also gave a relative viability ([4]; first compound 0.05 µM) of 0.192, a relative viability ([4]; first compound 0.1581 µM) of 0.221 and a relative viability ([4]; first compound 0.5 µM) of 0.197. It also gave a relative viability ([4]; first compound 1.581 µM) of 0.185, a relative viability ([4]; first compound 5 µM) of 0.143 and a relative viability ([5]; first compound 0.05 µM) of 0.111. For the same cell line, the relative viability ([5]; first compound 0.1581 µM) was 0.155, the relative viability ([5]; first compound 0.5 µM) was 0.206 and the relative viability ([5]; first compound 1.581 µM) was 0.209. For the same cell line, the relative viability ([5]; first compound 5 µM) was 0.138, the relative viability ([6]; first compound 0.05 µM) was 0.111 and the relative viability ([6]; first compound 0.1581 µM) was 0.144. It also gave a relative viability ([6]; first compound 0.5 µM) of 0.183, a relative viability ([6]; first compound 1.581 µM) of 0.167 and a relative viability ([6]; first compound 5 µM) of 0.15. For the same cell line, the relative viability ([7]; first compound 0.05 µM) was 0.0935, the relative viability ([7]; first compound 0.1581 µM) was 0.128 and the relative viability ([7]; first compound 0.5 µM) was 0.17. For the same cell line, the relative viability ([7]; first compound 1.581 µM) was 0.178, the relative viability ([7]; first compound 5 µM) was 0.124 and the relative viability ([8]; first compound 0.05 µM) was 0.107. The relative viability ([8]; first compound 0.1581 µM) was 0.133, the relative viability ([8]; first compound 0.5 µM) was 0.191 and the relative viability ([8]; first compound 1.581 µM) was 0.187. It also gave a relative viability ([8]; first compound 5 µM) of 0.117, a relative viability ([9]; first compound 0.05 µM) of 0.0879 and a relative viability ([9]; first compound 0.1581 µM) of 0.112. It also gave a relative viability ([9]; first compound 0.5 µM) of 0.133, a relative viability ([9]; first compound 1.581 µM) of 0.152 and a relative viability ([9]; first compound 5 µM) of 0.145. For the same cell line, the relative viability ([10]; 0.05 µM) was 0.1, the relative viability ([10]; 0.1581 µM) was 0.12 and the relative viability ([10]; 0.5 µM) was 0.186. For the same cell line, the relative viability ([10]; 1.581 µM) was 0.185 and the relative viability ([10]; 5 µM) was 0.145.
In the case of NCI-H1623, the relative viability ([11]; first compound 0.05 µM) is reported as 0.241, the relative viability ([11]; first compound 0.1581 µM) is reported as 0.295 and the relative viability ([11]; first compound 0.5 µM) is reported as 0.303. For the same cell line, the relative viability ([11]; first compound 1.581 µM) was 0.231, the relative viability ([11]; first compound 5 µM) was 0.322 and the relative viability ([12]; first compound 0.05 µM) was 0.32. It also gave a relative viability ([12]; first compound 0.1581 µM) of 0.364, a relative viability ([12]; first compound 0.5 µM) of 0.293 and a relative viability ([12]; first compound 1.581 µM) of 0.276. For the same cell line, the relative viability ([12]; first compound 5 µM) was 0.528, the relative viability ([13]; first compound 0.05 µM) was 0.366 and the relative viability ([13]; first compound 0.1581 µM) was 0.337. The relative viability ([13]; first compound 0.5 µM) was 0.424, the relative viability ([13]; first compound 1.581 µM) was 0.349 and the relative viability ([13]; first compound 5 µM) was 0.636. The relative viability ([14]; first compound 0.05 µM) was 0.336, the relative viability ([14]; first compound 0.1581 µM) was 0.367 and the relative viability ([14]; first compound 0.5 µM) was 0.332. It also gave a relative viability ([14]; first compound 1.581 µM) of 0.268, a relative viability ([14]; first compound 5 µM) of 0.293 and a relative viability ([8]; first compound 0.05 µM) of 0.39. For the same cell line, the relative viability ([8]; first compound 0.1581 µM) was 0.372, the relative viability ([8]; first compound 0.5 µM) was 0.414 and the relative viability ([8]; first compound 1.581 µM) was 0.347. For the same cell line, the relative viability ([8]; first compound 5 µM) was 0.622, the relative viability ([15]; first compound 0.05 µM) was 0.32 and the relative viability ([15]; first compound 0.1581 µM) was 0.329. For the same cell line, the relative viability ([15]; first compound 0.5 µM) was 0.323, the relative viability ([15]; first compound 1.581 µM) was 0.269 and the relative viability ([15]; first compound 5 µM) was 0.266. The relative viability ([10]; 0.05 µM) was 0.395, the relative viability ([10]; 0.1581 µM) was 0.415 and the relative viability ([10]; 0.5 µM) was 0.403. The relative viability ([10]; 1.581 µM) was 0.357 and the relative viability ([10]; 5 µM) was 0.32.
